Test results published in ChEMBL document CHEMBL1130924, “Potent inhibition of protein-tyrosine phosphatase-1B using the phosphotyrosyl mimetic fluoro-O-malonyl tyrosine (FOMT)” (Bioorg Med Chem Lett, 1998).
Peptide text beside a SMILES is read from it. * marks the point of attachment. X1 = O=C(O)C(C(=O)O)*

What was measured:
[1] = target: T1, Tyrosine-protein phosphatase non-receptor type 1 (Homo sapiens, UniProt P18031); experiment: Compound concentration that cause 50% inhibition of protein-tyrosine phosphatase 1B (PTP1B)
T1 sequence (P18031 whole entry): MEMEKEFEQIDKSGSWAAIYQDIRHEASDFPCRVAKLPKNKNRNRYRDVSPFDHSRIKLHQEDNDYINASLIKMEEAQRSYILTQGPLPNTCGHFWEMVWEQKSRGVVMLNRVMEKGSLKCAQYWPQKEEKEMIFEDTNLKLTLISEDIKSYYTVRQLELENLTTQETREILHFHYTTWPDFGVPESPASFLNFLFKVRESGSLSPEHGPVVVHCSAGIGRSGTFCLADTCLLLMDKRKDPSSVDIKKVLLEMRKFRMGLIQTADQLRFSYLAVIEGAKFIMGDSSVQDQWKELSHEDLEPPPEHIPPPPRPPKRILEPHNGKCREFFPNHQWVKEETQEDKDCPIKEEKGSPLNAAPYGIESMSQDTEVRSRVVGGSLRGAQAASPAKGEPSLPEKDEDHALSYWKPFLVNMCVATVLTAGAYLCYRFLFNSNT

[2] = target: T1, Tyrosine-protein phosphatase non-receptor type 1; experiment: Compound was evaluated for the binding affinity against protein-tyrosine phosphatase 1B (PTP1B)

IC50 [1] | Ki [2] | Compound
10 µM | – | N[C@@H](Cc1ccc(OC(C(=O)O)C(=O)O)cc1)C(=O)O
– | 13 µM | CC(=O)N[C@@H](CC(=O)O)C(=O)N[C@@H](C)C(=O)N[C@@H](CC(=O)O)C(=O)N[C@@H](CCC(=O)O)C(=O)N[C@@H](Cc1ccc(OC(C(=O)O)C(=O)O)cc1)C(=O)N[C@@H](CC(C)C)C(N)=O (Ac-DADEY(X1)L-NH2)
– | 0.17 µM | CC(C)C[C@@H]1NC(=O)[C@H](Cc2ccc(OC(F)(C(=O)O)C(=O)O)cc2)NC(=O)[C@@H](CCC(=O)O)NC(=O)[C@H](CC(=O)O)NC(=O)[C@@H](C)NC(=O)[C@H](CC(=O)O)NC(=O)CSCC(C(N)=O)NC1=O (some centres undefined)
1 µM | – | N[C@@H](Cc1ccc(OC(F)(C(=O)O)C(=O)O)cc1)C(=O)O [FLUOROMALONYL TYROSINE]
